What was measured:
[1] = target: T1, SGK1 (Homo sapiens, UniProt O00141); test: Inhibition of SGK1 (flashplate assay); format: biochemical; conditions: flashplate method
T1 sequence (O00141 1-431): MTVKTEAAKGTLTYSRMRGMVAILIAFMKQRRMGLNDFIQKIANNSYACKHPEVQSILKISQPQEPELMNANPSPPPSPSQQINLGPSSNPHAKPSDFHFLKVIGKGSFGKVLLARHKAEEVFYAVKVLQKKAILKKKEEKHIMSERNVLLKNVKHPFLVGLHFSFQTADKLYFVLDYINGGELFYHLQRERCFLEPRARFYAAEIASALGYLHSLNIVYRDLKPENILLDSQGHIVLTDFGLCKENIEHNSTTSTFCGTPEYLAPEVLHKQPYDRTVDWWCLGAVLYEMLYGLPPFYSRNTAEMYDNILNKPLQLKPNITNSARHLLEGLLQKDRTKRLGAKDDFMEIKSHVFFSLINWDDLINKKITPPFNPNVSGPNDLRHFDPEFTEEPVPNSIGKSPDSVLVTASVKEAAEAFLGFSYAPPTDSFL
Method: The test plates used are 384-well flashplate microtitre plates from Perkin Elmer (USA). The components of the kinase reaction are pipetted into the assay plate. The SGK1 kinase is incubated for 3 hr. with radioactively labelled ^33P-ATP in the presence and absence of test substances in a total volume of 100 μl at room temperature together with biotinylated poly(Glu, Tyr)4:1. The reaction is terminated using 25 μl of a 200 mM EDTA solution. After incubation for a further 30 min at room temperature, the supernatants are removed by suction, and the wells are washed three times with 100 μl of 0.9% NaCl solution each time. The radioactivity is measured using a Topcount scintillation counter (PerkinElmer, USA). IC50 values are calculated using the RS1 computer program.

[2] = target: T2, IGF1 receptor (IGF1R) (Homo sapiens, UniProt P08069); test: Inhibition of IGF1R (ELISA assay), IGF1-stimulated autophosphorylation in cells; format: cell-based; conditions: human tumour cells stimulated with IGF1, read-out: IC50 IGF (ELISA)
T2 construct: endogenous in cells; host or cells: MCF-7 or Calu-6
T2 sequence (P08069 31-1367): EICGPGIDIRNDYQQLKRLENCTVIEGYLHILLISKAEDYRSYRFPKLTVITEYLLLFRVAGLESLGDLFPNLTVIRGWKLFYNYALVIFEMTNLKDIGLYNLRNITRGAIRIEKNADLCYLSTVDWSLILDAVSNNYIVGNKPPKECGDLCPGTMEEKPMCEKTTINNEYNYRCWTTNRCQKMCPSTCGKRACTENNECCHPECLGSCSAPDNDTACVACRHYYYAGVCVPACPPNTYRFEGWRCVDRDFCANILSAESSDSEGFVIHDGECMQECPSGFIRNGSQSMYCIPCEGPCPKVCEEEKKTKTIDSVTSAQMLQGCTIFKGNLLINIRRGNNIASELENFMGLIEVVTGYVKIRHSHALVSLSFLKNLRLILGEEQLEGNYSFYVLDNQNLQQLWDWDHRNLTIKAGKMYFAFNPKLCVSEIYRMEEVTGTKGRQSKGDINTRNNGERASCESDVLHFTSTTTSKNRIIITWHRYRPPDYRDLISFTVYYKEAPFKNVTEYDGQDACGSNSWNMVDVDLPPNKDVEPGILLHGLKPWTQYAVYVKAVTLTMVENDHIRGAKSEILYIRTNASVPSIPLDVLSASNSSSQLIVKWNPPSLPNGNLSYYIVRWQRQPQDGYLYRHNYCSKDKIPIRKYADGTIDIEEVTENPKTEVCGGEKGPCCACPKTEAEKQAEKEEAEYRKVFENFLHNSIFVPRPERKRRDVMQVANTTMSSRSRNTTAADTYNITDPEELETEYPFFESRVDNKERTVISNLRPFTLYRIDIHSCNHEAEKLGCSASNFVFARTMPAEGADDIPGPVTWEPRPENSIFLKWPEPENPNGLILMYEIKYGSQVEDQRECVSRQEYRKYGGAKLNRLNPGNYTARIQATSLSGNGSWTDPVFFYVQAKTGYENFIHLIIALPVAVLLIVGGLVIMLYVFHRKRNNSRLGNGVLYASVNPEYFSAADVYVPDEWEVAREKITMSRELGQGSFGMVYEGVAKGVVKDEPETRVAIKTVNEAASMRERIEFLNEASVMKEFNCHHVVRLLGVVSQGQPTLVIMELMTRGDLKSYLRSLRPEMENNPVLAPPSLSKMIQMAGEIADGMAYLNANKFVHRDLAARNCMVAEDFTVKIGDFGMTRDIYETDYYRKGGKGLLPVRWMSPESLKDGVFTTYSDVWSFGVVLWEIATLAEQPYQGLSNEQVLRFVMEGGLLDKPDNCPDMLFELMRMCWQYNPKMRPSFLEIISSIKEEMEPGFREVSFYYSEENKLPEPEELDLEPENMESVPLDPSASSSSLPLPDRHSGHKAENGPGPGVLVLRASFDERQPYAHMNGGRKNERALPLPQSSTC
How it was run: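 Cells were preincubated 45 min with increasing compound concentrations, then stimulated 5 min with IGF1. Phospho-IGF1R in lysates was captured by a receptor-specific antibody and detected with anti-phosphotyrosine antibody via chemiluminescence ELISA or fluorescent LUMINEX read-out.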

[3] = target: VEGF-2 (Homo sapiens, UniProt P35968); test: Inhibition of VEGF-2 (flashplate assay); format: biochemical; conditions: flashplate method
VEGF-2, sequence (P35968 20-1356): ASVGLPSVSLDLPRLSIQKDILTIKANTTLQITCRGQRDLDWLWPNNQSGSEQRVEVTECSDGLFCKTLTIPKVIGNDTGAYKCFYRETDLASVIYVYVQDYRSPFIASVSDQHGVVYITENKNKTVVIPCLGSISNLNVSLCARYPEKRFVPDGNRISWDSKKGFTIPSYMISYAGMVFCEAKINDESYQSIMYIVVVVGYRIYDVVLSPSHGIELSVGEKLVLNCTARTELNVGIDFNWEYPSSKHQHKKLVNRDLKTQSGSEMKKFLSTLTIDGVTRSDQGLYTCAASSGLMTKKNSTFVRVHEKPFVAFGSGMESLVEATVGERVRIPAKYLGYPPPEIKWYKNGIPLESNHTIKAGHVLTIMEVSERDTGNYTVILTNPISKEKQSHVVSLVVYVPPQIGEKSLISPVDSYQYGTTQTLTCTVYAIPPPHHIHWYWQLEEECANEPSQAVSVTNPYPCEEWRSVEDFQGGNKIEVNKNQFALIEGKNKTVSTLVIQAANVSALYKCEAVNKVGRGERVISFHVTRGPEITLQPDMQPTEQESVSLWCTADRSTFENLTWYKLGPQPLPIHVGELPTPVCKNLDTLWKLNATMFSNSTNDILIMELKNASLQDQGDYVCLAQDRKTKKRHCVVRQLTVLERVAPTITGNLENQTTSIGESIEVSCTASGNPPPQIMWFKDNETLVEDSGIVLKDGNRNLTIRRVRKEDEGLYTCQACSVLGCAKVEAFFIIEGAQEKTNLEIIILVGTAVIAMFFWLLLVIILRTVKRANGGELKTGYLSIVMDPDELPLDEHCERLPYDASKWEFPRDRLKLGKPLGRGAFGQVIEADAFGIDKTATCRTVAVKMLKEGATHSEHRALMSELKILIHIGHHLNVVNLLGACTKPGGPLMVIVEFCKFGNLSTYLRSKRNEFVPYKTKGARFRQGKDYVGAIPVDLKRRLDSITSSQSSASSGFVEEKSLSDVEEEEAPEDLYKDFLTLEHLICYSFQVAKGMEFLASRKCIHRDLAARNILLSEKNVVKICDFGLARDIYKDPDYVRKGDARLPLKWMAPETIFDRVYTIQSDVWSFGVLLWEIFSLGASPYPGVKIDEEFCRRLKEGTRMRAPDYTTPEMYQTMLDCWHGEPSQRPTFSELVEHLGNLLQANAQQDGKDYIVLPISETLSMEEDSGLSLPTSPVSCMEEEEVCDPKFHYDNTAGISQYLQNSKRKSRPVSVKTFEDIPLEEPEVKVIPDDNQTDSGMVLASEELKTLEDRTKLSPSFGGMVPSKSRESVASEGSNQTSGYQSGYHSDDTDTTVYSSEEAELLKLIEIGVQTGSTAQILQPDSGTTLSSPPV
How it was run: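 Kinase incubated 3 hr at room temperature with ^33P-ATP and biotinylated poly(Glu, Tyr)4:1, with or without test substance. Stopped with EDTA, wells washed after 30 min; incorporated radioactivity counted by scintillation and IC50 calculated.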

[4] = target: TIE2 (Homo sapiens, UniProt Q02763); test: Inhibition of TIE2 (flashplate assay); format: biochemical; conditions: flashplate method
TIE2, sequence (Q02763 23-1124, species assumed): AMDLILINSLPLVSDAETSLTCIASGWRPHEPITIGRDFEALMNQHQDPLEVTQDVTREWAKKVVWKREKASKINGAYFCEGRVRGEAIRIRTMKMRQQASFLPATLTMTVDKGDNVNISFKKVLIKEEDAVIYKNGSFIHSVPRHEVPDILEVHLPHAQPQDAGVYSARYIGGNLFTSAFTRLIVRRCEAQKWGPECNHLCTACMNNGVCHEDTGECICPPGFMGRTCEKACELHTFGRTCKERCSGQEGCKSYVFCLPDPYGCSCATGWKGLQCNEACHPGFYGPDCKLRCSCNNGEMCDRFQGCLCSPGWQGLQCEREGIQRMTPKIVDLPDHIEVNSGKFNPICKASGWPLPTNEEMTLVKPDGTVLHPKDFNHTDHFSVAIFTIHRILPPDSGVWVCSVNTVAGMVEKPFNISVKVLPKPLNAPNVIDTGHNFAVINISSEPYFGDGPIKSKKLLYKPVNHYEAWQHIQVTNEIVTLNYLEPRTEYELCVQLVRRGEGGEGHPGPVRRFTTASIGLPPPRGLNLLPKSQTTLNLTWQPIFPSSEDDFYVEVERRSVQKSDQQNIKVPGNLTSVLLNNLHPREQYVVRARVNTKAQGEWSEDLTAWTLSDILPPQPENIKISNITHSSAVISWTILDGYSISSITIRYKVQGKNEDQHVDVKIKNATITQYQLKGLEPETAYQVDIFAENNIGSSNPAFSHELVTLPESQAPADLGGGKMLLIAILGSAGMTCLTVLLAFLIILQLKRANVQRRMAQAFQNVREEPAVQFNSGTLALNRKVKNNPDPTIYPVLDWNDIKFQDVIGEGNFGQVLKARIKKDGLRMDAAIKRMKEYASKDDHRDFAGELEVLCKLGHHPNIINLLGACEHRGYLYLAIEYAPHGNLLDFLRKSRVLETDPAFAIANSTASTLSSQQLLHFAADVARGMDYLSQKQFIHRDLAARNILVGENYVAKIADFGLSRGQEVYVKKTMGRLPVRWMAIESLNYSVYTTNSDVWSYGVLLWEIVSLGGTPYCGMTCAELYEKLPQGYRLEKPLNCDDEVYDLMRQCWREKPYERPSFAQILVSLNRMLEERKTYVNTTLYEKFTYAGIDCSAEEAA
How it was run: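 Radiometric flashplate kinase assay: TIE2 incubated 3 h at room temperature with ³³P-ATP and biotinylated poly(Glu,Tyr) 4:1, with or without test compound. Reaction stopped with EDTA, wells washed, incorporated radioactivity counted by scintillation; IC50 calculated from the data.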

[5] = target: T3, insulin receptor (InsR) (Homo sapiens, UniProt P06213); test: Inhibition of InsR (ELISA assay), insulin-stimulated autophosphorylation in cells; format: cell-based; conditions: human cells stimulated with insulin
T3 construct: endogenous in cells; host or cells: HepG2
T3 sequence (P06213 28-1382): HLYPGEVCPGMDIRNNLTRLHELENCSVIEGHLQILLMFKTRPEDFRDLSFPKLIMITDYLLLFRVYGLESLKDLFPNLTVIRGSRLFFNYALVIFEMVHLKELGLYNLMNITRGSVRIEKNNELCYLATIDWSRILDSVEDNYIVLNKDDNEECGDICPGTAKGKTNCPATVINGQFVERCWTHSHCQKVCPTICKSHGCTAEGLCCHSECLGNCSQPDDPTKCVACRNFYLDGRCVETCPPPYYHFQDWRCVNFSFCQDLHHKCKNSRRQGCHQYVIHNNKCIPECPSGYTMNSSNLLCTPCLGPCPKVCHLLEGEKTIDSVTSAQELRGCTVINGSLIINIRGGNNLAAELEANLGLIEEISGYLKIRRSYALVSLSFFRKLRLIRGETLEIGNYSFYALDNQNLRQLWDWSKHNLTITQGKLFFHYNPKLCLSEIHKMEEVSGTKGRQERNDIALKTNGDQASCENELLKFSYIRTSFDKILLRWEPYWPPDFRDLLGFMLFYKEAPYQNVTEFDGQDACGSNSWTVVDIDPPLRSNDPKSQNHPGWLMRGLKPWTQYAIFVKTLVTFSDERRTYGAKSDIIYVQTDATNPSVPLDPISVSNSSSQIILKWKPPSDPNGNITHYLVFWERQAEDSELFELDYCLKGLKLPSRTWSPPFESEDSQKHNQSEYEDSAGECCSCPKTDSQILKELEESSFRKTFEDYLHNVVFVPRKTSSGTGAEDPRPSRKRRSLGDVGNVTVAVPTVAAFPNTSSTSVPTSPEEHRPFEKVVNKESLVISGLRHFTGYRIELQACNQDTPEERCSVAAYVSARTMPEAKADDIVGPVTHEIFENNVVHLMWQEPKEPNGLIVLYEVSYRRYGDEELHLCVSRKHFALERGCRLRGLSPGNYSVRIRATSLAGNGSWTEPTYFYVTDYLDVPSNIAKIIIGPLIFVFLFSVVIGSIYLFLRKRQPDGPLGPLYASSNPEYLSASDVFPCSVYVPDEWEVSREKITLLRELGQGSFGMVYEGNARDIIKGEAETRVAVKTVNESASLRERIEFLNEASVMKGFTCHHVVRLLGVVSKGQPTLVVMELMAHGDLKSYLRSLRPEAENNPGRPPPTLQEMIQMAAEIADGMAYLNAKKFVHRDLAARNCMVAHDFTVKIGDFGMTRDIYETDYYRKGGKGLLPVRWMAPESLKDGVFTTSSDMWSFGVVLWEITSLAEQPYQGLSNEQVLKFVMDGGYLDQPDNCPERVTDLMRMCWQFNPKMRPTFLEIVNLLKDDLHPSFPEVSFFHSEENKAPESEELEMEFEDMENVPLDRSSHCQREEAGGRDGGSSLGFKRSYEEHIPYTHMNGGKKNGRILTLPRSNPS
Method: Cultivated human cells which express the insulin receptor (InsR) (for example HepG2) are stimulated using human insulin, the natural ligand of InsR. The stimulation induces autophosphorylation of tyrosine residues in the cytoplasmatic InsR domain, which triggers signal transduction cascades, which initiate various biological reactions of the cells. The amount of phosphorylated InsR is determined by a receptor-specific capture ELISA or an analogous LUMINEX assay. The InsR from cell lysates is bound to a 96-well ELISA plate or LUMINEX beads by means of a specific antibody (“capturing”), and the tyrosine phosphorylation is detected using a biotin-labelled anti-phosphotyrosine antibody and a streptavidin-peroxidase conjugate by a chemiluminescence method or by means of a fluorescence-labelled anti-phosphotyrosine antibody. For determination of the activity of kinase inhibitors, cells are pretreated with increasing concentrations of these compounds for 45 min and subsequently stimulated using insulin for 5 min. As internal control, the biological activity of the ligand insulin is checked, and a concentration series of a reference inhibitor is measured.

| SMILES | IC50 [1] [nM] | IC50 [2] [nM] | IC50 [3] [nM] | IC50 [4] [nM] | melting point [°C] | IC50 [5] [nM] |
| --- | --- | --- | --- | --- | --- | --- |
| NCC1CC(n2cc(-c3cc4ccccc4o3)c3c(N)ncnc32)C1 (stereo not drawn) [Compound 37] | 6100 | 29000 | 160 | 1100 |  |  |
| Nc1ncnc2c1c(-c1cccc(O)c1)cn2C1CC(CN2CCCC2)C1 (stereo not drawn) [Compound 2, 3-[4-Amino-7-(3-pyrrolidin-1-ylmethylcyclobutyl)-7H-pyrrolo[2,3-d]pyrimidin-5-yl]phenol] | 7400 | 5900 | 195 | 870 |  |  |
| NCC1CC(n2cc(-c3ccc4[nH]ccc4c3)c3c(N)ncnc32)C1 (stereo not drawn) [Compound 3, 7-(3-Aminomethylcyclobutyl)-5-(1H-indol-5-yl)-7H-pyrrolo[2,3-d]pyrimidin-4-ylamine] |  | 5000 | 10 | 380 | 142 to 144 | 12000 |
| Nc1ncnc2c1c(-c1cccc(O)c1)cn2C1CC(CN2CCCC2)C1 (stereo not drawn) [Compound 1, 3-[4-amino-7-(3-pyrrolidin-1-ylmethylcyclobutyl)-7H-pyrrolo[2,3-d]pyrimidin-5-yl]phenol] |  | 2400 | 180 | 520 | 193 to 194 | 2100 |
